Measured values taken from patent US20110218143A1, “COMPOSITIONS AND METHODS FOR TISSUE REPAIR” (UNIVERSITY OF FLORIDA RESEARCH FOUNDATION, priority 2007, published 2011).
“Also recorded” adds a separate entry of the source.

Assays:
Format in all cases: in vivo, C57BL6/J mice
[1] = test system: cytokine production in mouse blood; assay: Cytokine/chemokine levels in blood serum (Millipore 21-Plex, Luminex)
Protocol: Mice received either a placebo, celastrol (3.0 mg/kg), or 17-AAG (10 mg/kg) by intraperitoneal injection. Blood samples were taken from all groups of mice at 0, 1, 3, 6, 24, 48, and 72 hours after administration of the placebo, celastrol, or 17-AAG. The blood samples were analyzed for cytokine production, including the production of granulocyte-macrophage colony-stimulating factor (GM-CSF), interferon-gamma (IFN-γ), interleukin-10 (IL-10), interleukin-12 subunit beta (IL-12p40), interleukin-12 heterodimer (IL-12p70), interleukin-12 homodimer (IL-12p80), vascular endothelial growth factor (VEGF), tumor necrosis factor-alpha (TNF-α), keratinocyte derived chemokine (KC), RANTES (Regulated upon Activation, Normal T-cell Expressed, and Secreted; CCL5), monocyte chemotactic protein-1 (MCP 1), macrophage inflammatory protein (MIP1β; CCL4), interleukin-4 (IL-4), interleukin-3 (IL-3), interleukin-2 (IL-2), interleukin-1 beta (IL-1β), interleukin-1 alpha (IL-1α), interleukin-9 (IL-9), interleukin-13 (IL-13), interleukin-17 (IL-17), interleukin-6 (IL-6), and interleukin-5 (IL-5). Blood serum was analyzed using a commercially available kit (e.g., Mouse cytokine/chemokine panel: 21-Plex; Millipore). Blood serum (50 μl) was assayed in duplicate using a commercially available cytokine/chemokine detection kit from Millipore following the protocol given with the product information. The final measurement was performed using a commercially available detector (e.g., computer-operated Luminex 100 IS system) and the results were expressed as pg/ml blood serum sample. Levels of cytokines in blood were quantitated as a concentration of the total volume of the sample.

[2] = test system: stem cell populations in blood (cd34+, cd45+, Sca-1+ cells); assay: FACS of cells expressing stem cell markers CD34, CD45, Sca-1 in blood samples
Protocol: Mice received either a placebo or triptolide (400 μg/kg) by intraperitoneal injection.
Celastrol analogs administered included dihydrocelastrol, dihydrocelastrol diacetate, and pristimerol (dihydropristimerin). Mice received either a placebo or a celastrol analog (3.0 mg/kg) by intraperitoneal injection.
(§1) Mice received either a placebo (PBS) or oridonin (3.0 mg/kg) by intraperitoneal injection.

[3] = test system: stem cell populations in bone marrow (cd34+, cd45+, Sca-1+ cells); assay: FACS of cells expressing stem cell markers CD34, CD45, Sca-1 in bone marrow samples
Protocol: as §1

[4] = i.p. celastrol 3.0 mg/kg or 17-AAG 10 mg/kg, 72 hour time course
[5] = i.p. celastrol 3.0 mg/kg or 17-AAG 10 mg/kg, sampled 0-72 h
[6] = i.p. celastrol 3.0 mg/kg or 17-AAG 10 mg/kg, sampled 0-72 h, vs placebo control
[7] = celastrol analog 3.0 mg/kg i.p., 24 hours post treatment (so in the source)
[8] = celastrol analog 3.0 mg/kg i.p., 24 hours post treatment
[9] = oridonin 3.0 mg/kg i.p., 48 hours post treatment
[10] = oridonin 3.0 mg/kg i.p., 24 hours post treatment
[11] = triptolide 400 μg/kg i.p., 24 hours post treatment
[12] = triptolide 400 μg/kg i.p., 48 hours post treatment
[13] = triptolide 400 μg/kg i.p., 72 hours post treatment

Q: Which results are given for C=CCNC1=C2C[C@@H](C)C[C@H](OC)[C@H](O)[C@@H](C)/C=C(\C)[C@H](OC(N)=O)[C@@H](OC)/C=C\C=C(/C)C(=O)NC(=CC1=O)C2=O [Formula 17-AAG, 17-allylamino-17-demethoxygeldanamycin]?
A: level of TNF-α compared to placebo control ([1]; 17-AAG 10 mg/kg i.p., by 24 hours post treatment): declined below levels seen in the placebo control; level of MCP1 compared to placebo control ([1]; 17-AAG 10 mg/kg i.p., over the course of the experiment): not significantly different; level of IL-17 compared to placebo control ([1]; i.p. celastrol 3.0 mg/kg (throughout 72 hours) or 17-AAG 10 mg/kg (up to 48 hours)): consistently high; level of IFN-γ compared to placebo control [1, 4]: remained elevated up to 72 hours; level of IL-1β compared to placebo control [1, 4]: remained elevated up to 72 hours; level of IL-3 compared to placebo control [1, 4]: remained elevated up to 72 hours; level of IL-4 compared to placebo control [1, 4]: remained elevated up to 72 hours; level of IL-5 compared to placebo control [1, 4]: remained elevated up to 72 hours; level of IL-10 compared to placebo control [1, 4]: remained elevated up to 72 hours; also recorded: had risen again by 72 hours; level of IL-12p40 compared to placebo control [1, 4]: elevated again at 24 hours; level of IL-12p70 compared to placebo control [1, 4]: remained elevated up to 72 hours; level of IL-12p80 compared to placebo control [1, 4]: remained elevated up to 72 hours; time by which GM-CSF (elevated pre treatment) declined to placebo control levels [1, 5]: ≤ 6 h; time by which IL-1α returned to levels seen in the placebo control [1, 5]: ≤ 24 h; time by which IL-2 returned to levels seen in the placebo control [1, 5]: ≤ 6 h; time by which IL-6 returned to levels seen in the placebo control [1, 5]: ≤ 24 h; time by which IL-9 (elevated pre treatment) declined to placebo control levels [1, 5]: ≤ 6 h; time by which IL-13 returned to levels seen in the placebo control [1, 5]: ≤ 6 h; time by which KC returned to levels seen in the placebo control [1, 5]: ≤ 24 h; time by which MIP1β returned or declined to placebo control levels [1, 5]: ≤ 6 h; time by which RANTES returned to levels seen in the placebo control [1, 5]: up to 72 hours; time by which VEGF returned to levels seen in the placebo control [1, 5]: ≤ 6 h; time of peak level of IFN-γ post treatment [1, 6]: around 24 hours; time of peak level of IL-1α post treatment [1, 6]: around 6 hours; time of peak level of IL-1β post treatment [1, 6]: around 24 hours; time of peak level of IL-2 post treatment [1, 6]: around 3 hours; time of peak level of IL-3 post treatment [1, 6]: around 24 hours; time of peak level of IL-4 post treatment [1, 6]: around 24 hours; time of peak level of IL-5 post treatment [1, 6]: around 24 hours; time of peak level of IL-6 post treatment [1, 6]: around 6 hours; time of peak level of IL-10 post treatment [1, 6]: around 24 hours; time of peak level of IL-12p70 post treatment [1, 6]: around 24 hours; time of peak level of IL-12p80 post treatment [1, 6]: around 24 hours; time of peak level of IL-13 post treatment [1, 6]: around 3 hours; time of peak level of KC post treatment [1, 6]: around 6 hours; time of peak level of MCP1 post treatment [1, 6]: around 24 hours; time of peak level of MIP1β post treatment [1, 6]: around 3 hours; time of peak level of RANTES post treatment [1, 6]: around 48 hours; time of peak level of TNF-α post treatment [1, 6]: around 3 hours; time of peak level of VEGF post treatment [1, 6]: around 3 hours

Q: For Cc1c(O)c(O)cc2c1CC=C1[C@@]2(C)CC[C@@]2(C)[C@@H]3C[C@](C)(C(=O)O)CC[C@]3(C)CC[C@]12C [dihydrocelastrol], which “Sca-1+ cells, percent of the population of blood cells” value [2, 7] is on record?
A: Its value is 0.4%.

Q: And the “cd34+ cells, percent of the population of blood cells” value [2, 7]?
A: The value was “approximately 0.6%”.

Q: And the “cd45+ cells, percent of the population of blood cells” value [2, 7]?
A: Its value is “about 0.19%”.

Q: And the “fold increase of percentage of Sca-1+ cells in blood over control” value [2, 7]?
A: Its value is about 10 fold.

Q: What about the “fold increase of percentage of cd34+ cells in blood over control” value [2, 7] of the same compound?
A: Its value is about 4 fold.

Q: What about the “fold increase of percentage of cd45+ cells in blood over control” value [2, 7] of the same compound?
A: Its value is about 10 fold.

Q: What about the “Sca-1+ cells, percent of the population of bone marrow cells” value [3, 8] of the same compound?
A: The value was 0.14%.

Q: What about the “cd34+ cells, percent of the population of bone marrow cells” value [3, 8] of the same compound?
A: Its value is 0.15%.

Q: What about the “cd45+ cells, percent of the population of bone marrow cells” value [3, 8] of the same compound?
A: The value was 0.04%.

Q: What about the “change of percentage of cd45+ cells in bone marrow compared to untreated control” value [3, 8] of the same compound?
A: The value was “slight increase”.

Q: And the “fold increase of percentage of Sca-1+ cells in bone marrow over control” value [3, 8]?
A: Its value is about 3 fold.

Q: And the “fold increase of percentage of cd34+ cells in bone marrow over control” value [3, 8]?
A: Its value is about 3 fold.

Q: Which results are given for C=C1C(=O)[C@]23[C@H](O)[C@H]1CC[C@H]2[C@@]12CO[C@]3(O)[C@@H](O)[C@@H]1C(C)(C)CC[C@@H]2O [oridonin]?
A: Sca-1+ cells, percent of the population of blood cells [2, 9]: 0.14%; cd34+ cells, percent of the population of blood cells [2, 9]: approximately 0.18%; fold increase of percentage of Sca-1+ cells in blood over control [2, 9]: ~1.4 fold; fold increase of percentage of cd34+ cells in blood over control [2, 9]: ~1.8 fold; CD34 cells, percent of the population of bone marrow cells [3, 10]: greater than 0.5%; Sca-1+ cells, percent of the population of bone marrow cells [3, 10]: about 0.5%; fold increase of percentage of Sca-1+ cells in bone marrow over control [3, 10]: ≥ 10 fold; fold increase of percentage of cd34+ cells in bone marrow over control [3, 10]: ≥ 10 fold

Q: What does the source list for COC(=O)[C@]1(C)CC[C@]2(C)CC[C@]3(C)C4=CCc5c(cc(O)c(O)c5C)[C@]4(C)CC[C@@]3(C)[C@@H]2C1 [pristimerol]?
A: Sca-1+ cells, percent of the population of blood cells [2, 7]: about 0.25%; cd34+ cells, percent of the population of blood cells [2, 7]: about 0.4%; cd45+ cells, percent of the population of blood cells [2, 7]: about 0.06%; fold increase of percentage of Sca-1+ cells in blood over control [2, 7]: ~6 fold; fold increase of percentage of cd34+ cells in blood over control [2, 7]: ~3 fold; fold increase of percentage of cd45+ cells in blood over control [2, 7]: ~3 fold; Sca-1+ cells, percent of the population of bone marrow cells [3, 8]: about 0.28%; cd34+ cells, percent of the population of bone marrow cells [3, 8]: about 0.28%; cd45+ cells, percent of the population of bone marrow cells [3, 8]: about 0.16%; fold increase of percentage of Sca-1+ cells in bone marrow over control [3, 8]: 4-5 fold; fold increase of percentage of cd34+ cells in bone marrow over control [3, 8]: greater than 4 fold; fold increase of percentage of cd45+ cells in bone marrow over control [3, 8]: greater than 5 fold

Q: With CC(C)[C@]12O[C@H]1[C@@H]1O[C@]13[C@]1(O[C@H]1C[C@H]1C4=C(CC[C@@]13C)C(=O)OC4)[C@@H]2O [triptolide] as the compound, how does the “CD34-expressing cells, percent of the population of blood cells” value [2, 11] read?
A: Its value is about 1%.

Q: And the “Sca-1+ cells, percent of the population of blood cells” value [2, 11]?
A: The value was about 1%.

Q: And the “Sca-1+ cells, percent of cells in blood” value [2, 12]?
A: The value was about 2%.

Q: And the “cd34+ cells, percent of cells in blood” value [2, 12]?
A: The value was about 2%.

Q: What about the “cd45+ cells, percent of the cells in blood” value [2, 12] of the same compound?
A: The value was “about 0.2%”.

Q: And the “Sca-1+ cells, percent of cells in blood” value [2, 13]?
A: Its value is about 3%.

Q: What about the “cd34+ cells, percent of cells in blood” value [2, 13] of the same compound?
A: Its value is “about 3%”.

Q: And the “cd34+ cells, percent of the population of bone marrow cells” value [3, 11]?
A: The value was about 0.8%.

Q: And the “fold increase in the proportion of Sca-1 stem cells in bone marrow vs untreated mice” value [3, 11]?
A: Its value is “approximately 15 fold”.

Q: And the “fold increase of percentage of cd34+ cells in bone marrow over control” value [3, 11]?
A: Its value is about 16 fold.

Q: And the “fold increase of percentage of cd45+ cells in bone marrow vs untreated control” value [3, 11]?
A: Its value is “about 3 fold”.

Q: What about the “sca-1+ stem cells, percent of bone marrow cell population” value [3, 11] of the same compound?
A: The value was 0.75%.

Q: What about the “cd34+ cells, percent of bone marrow cells” value [3, 12] of the same compound?
A: The value was 0.3%.

Q: And the “cd45+ cells, percent in bone marrow” value [3, 12]?
A: Its value is “about 0.07%”.

Q: And the “fold increase of percentage of cd34+ cells in bone marrow compared to control mice” value [3, 12]?
A: The value was 6 fold.

Q: And the “sca-1+ cells, percent of bone marrow cell population” value [3, 12]?
A: Its value is 0.25%.

Q: And the “CD34 cells, percent in bone marrow” value [3, 13]?
A: Its value is 0.65%.

Q: What about the “Sca-1+ cells, percent in bone marrow” value [3, 13] of the same compound?
A: The value was “about 0.5%”.

Q: What about the “cd45+ cells, percent in bone marrow” value [3, 13] of the same compound?
A: Its value is about 0.12%.
